From patent publication US7247709B2, “Mitogenic oxygenases” (Emory University, priority 1998, dated 2007)
Blank lines part the entries; values can stand above or below the molecule they belong to.

What was measured:
mox1 NADPH-oxidase = molecular target: T1, mox1 NADPH-oxidase (Homo sapiens, UniProt Q9Y5S8, I173V); experiment: Cell-free assay for mox1 NADPH-oxidase activity (NADPH-dependent chemiluminescence of cell lysates); format: biochemical; conditions: MgCl2 1-5 mM
T1 construct: expressed in transfected cells
T1 sequence (Q9Y5S8 1-564 I173V): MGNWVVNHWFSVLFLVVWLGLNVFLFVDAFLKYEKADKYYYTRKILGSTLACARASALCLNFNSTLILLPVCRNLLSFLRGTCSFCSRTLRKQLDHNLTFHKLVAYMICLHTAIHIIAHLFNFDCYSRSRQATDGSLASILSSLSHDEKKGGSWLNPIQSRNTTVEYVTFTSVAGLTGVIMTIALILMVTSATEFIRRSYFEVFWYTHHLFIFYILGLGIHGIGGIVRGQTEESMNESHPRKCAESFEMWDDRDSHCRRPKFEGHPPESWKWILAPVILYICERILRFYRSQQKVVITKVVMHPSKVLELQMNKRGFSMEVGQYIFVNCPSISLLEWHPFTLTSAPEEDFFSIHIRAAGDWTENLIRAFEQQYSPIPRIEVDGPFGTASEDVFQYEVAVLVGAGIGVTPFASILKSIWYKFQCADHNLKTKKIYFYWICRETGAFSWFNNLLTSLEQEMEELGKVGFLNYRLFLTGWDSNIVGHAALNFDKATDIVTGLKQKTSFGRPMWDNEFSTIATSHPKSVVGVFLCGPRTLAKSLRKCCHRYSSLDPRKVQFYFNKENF
T1 sequence (Q61462 1-192 partner): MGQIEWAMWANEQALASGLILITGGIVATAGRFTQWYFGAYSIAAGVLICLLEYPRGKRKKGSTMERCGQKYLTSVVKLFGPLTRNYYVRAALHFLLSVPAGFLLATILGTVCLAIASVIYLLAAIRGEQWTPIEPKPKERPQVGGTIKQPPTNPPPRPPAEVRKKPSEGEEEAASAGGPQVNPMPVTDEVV
Experimental: In an alternate and preferred embodiment of the present invention, cells that had been stably transfected with mox1 (YA28) or with empty vector (NEF2) were grown in 10 cm tissue culture plates in medium containing DMEM, 10% calf serum, 100 units/ml penicillin, 100 μg/ml streptomycin, and 1 μg/ml puromycin to approximately 80% confluency. Cells (five tissue culture plates of each cell type) were washed briefly with 5 ml phosphate buffered saline (PBS) then dissociated from the plates with PBS containing 5 mM EDTA. Cells were pelleted by centrifuging briefly at 1000×g.
To permeabilize the cells, freeze thaw lysis was carried out and this was followed by passage of the cell material through a small bore needle. The supernatant was removed and the cells were frozen on dry ice for 15 minutes. […]
The cell lysates were assayed for protein concentration using the BioRad protein assay system. […] The reaction was initiated by adding 1.5 mM NADPH and 75 μM lucigenin to the assay mix to give a final concentration of 200 μM NADPH and 10 μM lucigenin, and the chemiluminescence was monitored immediately. […] The plate was monitored continuously for 60 minutes and the maximal relative luminescence unit (RLU) value for each sample was used for the graph. […]

r-p65mox mRNA = experiment: Expression of r-p65mox mRNA in rat aortic smooth muscle cells (Northern blot); format: cell-based
Experimental: Human multiple tissue northern (MTN) Blot I and Human MTN Blot IV (ClonTech) membranes were hybridized with the putative coding region of the PCR-mox vector at 68° C. for several hours. The mox coding region was labeled by random priming with [α-^32P]dCTP (10 μCi) using the Prime-It II kit (Stratagene). For analysis of mox1 expression in cell lines, total RNA was prepared from 10^6 cells using the High Pure RNA Isolation Kit (Boehringer Mannheim) or RNeasy kit (Quiagen). Total RNA (10-20 μg) was separated on a 1% agarose formaldehyde mini-gel and transferred to a Nytran filter (Biorad) and immobilized by ultraviolet cross-linking.
Using the partial cDNA clone from rat, we have examined cultured rat aortic smooth muscle cells for expression of message for r-p65mox. We have observed the mRNA for r-p65mox in these cells. It has been previously reported (Griendling et al. (1994) Circ. Res. 74, 1141-1148; Fukui et al. (1997) Circ. Res. 80, 45-51; Ushio-Fukai et al. (1996) J. Biol. Chem. 271, 23317-23321) that in vitro or in vivo treatment with angiotensin II (AII) is a growth stimulus for vascular smooth muscle cells, and that AII induces increased superoxide generation in these cells. Platelet-derived growth factor (PDGF) and PMA are proliferative signals for vascular smooth muscle cells. We observed that the mRNA for r-p65mox was induced approximately 2-3 fold by angiotensin II (100 nM), corresponding to the increased level of superoxide generation. Thus, the increased superoxide generation in these cells correlates with increased expression of the mRNA for this enzyme. […] 28S RNA was used as a control for RNA recovery.

[1] = test system: NIH 3T3 cells transfected with the mox1 cDNA (SEQ ID NO:1); experiment: Nitro blue tetrazolium reduction by superoxide generated by intact NIH 3T3 cells transfected with mox1 cDNA; format: cell-based; conditions: 600 units superoxide dismutase
Experimental: Superoxide generation by intact cells was monitored by using superoxide dismutase-sensitive reduction of nitroblue tetrazolium. NEF2 (vector alone control), YA26 (mox1 (SEQ ID NO:1)-transfected) and YA28 (mox1 (SEQ ID NO:1)-transfected) cells were plated in six well plates at 500,000 cells per well. About 24 hours later, medium was removed from cells and the cells were washed once with 1 mL Hanks solution (Sigma, St. Louis, Mo.). About 1 mL of filtered 0.25% Nitro blue tetrazolium (NBT, Sigma) was added in Hanks without or with 600 units of superoxide dismutase (Sigma) and cells were incubated at 37° C. in the presence of 5% CO2. After 8 minutes the cells were scraped and pelleted at more than 10,000 g. The pellet was re-suspended in 1 mL of pyridine (Sigma) and heated for 10 minutes at 100° C. to solubilize the reduced NBT. The concentration of reduced NBT was determined by measuring the absorbance at 510 nm, using an extinction coefficient of 11,000 M^−1cm^−1. Some wells were untreated and used to determine cell number.

[2] = test system: superoxide-generating NADPH oxidase activity; experiment: Superoxide generation in lysates of Ras-transformed fibroblasts, lucigenin luminescence assay; format: biochemical; conditions: for RLU/5 μg protein, plus SOD: 100 U SOD; for inhibition of luminescence / activity: lysates of Table 6; for RLU/5 μg protein, plus DPI: 1 μM DPI
Experimental: Lysates from each of these lines were then prepared and tested for their ability to generate superoxide. For each cell line, cells were washed with cold HANKS' balanced salt solution (HBSS), collected by centrifugation, kept on dry-ice for more than 30 min, and disrupted by suspending in low salt buffer (LSB; 50 mM Tris/HCl, pH 7.5, 1 mM PMSF, and protease cocktail from Sigma) and passing through a syringe needle (18 gauge) ten times. Cell lysates were frozen in dry-ice immediately after determining the protein concentration. […] Luminescence of the reaction mixture was monitored for 0.5 second by LumiCounter (Packard) for four times at 3 second intervals. RLU in Table 5 refers to relative luminescence units.

human mox1 = molecular target: T2, human mox1 (Homo sapiens, UniProt Q9Y5S8, I173V); experiment: NADPH-dependent superoxide generation, lucigenin luminescence assay in lysates of mox1-transfected NIH 3T3 cells; format: biochemical; conditions: lysates of stably mox1-transfected NIH 3T3 cell lines
T2 construct: expressed in transfected cells
T2 sequence (Q9Y5S8 1-564 I173V): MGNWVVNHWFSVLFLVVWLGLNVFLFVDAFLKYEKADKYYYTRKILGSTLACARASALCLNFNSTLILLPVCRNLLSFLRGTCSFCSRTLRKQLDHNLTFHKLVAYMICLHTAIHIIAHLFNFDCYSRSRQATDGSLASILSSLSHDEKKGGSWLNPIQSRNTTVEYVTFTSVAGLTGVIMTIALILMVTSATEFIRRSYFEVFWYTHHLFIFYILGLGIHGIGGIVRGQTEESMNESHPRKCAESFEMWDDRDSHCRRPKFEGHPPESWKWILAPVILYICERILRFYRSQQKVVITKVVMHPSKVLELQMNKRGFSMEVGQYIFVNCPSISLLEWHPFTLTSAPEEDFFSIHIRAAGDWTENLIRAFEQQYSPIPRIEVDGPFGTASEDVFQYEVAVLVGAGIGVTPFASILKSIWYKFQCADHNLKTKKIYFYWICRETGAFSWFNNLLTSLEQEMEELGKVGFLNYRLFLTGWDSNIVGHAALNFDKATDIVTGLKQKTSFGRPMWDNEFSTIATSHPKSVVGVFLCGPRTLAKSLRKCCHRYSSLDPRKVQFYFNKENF
T2 sequence (Q61462 1-192 partner): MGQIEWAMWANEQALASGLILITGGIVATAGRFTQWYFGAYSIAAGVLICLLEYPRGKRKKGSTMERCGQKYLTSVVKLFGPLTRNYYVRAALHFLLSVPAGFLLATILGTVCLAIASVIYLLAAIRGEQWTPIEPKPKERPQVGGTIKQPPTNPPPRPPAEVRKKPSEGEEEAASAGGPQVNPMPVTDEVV
Experimental: In one embodiment of the present invention, NIH 3T3 cells stably transfected with the human mox1 gene (SEQ ID NO:1) were analyzed for superoxide generation using the lucigenin (Bis-N-methylacridinium luminescence assay (Sigma, St. Louis, Mo., Li et al. (1998) J. Biol. Chem. 273, 2015-2023). Cells were washed with cold HANKS' solution and homogenized on ice in HANKS' buffer containing 15% sucrose using a Dounce homogenizer. Cell lysates were frozen immediately in a dry ice/ethanol bath. For the assay, 30 μg of cell lysate was mixed with 200 μM NADPH and 500 μM lucigenin. Luminescence was monitored using a LumiCounter (Packard) at three successive one minute intervals and the highest value was used for comparison. Protein concentration was determined by the Bradford method.
Superoxide generation was monitored in lysates from some of the stably transfected cell lines and was compared with superoxide generation by the untransfected NIH 3T3 cell lysates. Cell lines 26, 27, and 28 gave the highest degree of morphological changes by microscopic examination corresponding to the highest degree of superoxide generation. The luminescent signal was inhibited by superoxide dismutase and the general flavoprotein inhibitor diphenylene iodonium, but was unaffected by added recombinant human p47phox, p67phox and Rac1 (GTP-γS), which are essential cytosolic factors for the phagocyte respiratory-burst oxidase.

Molecule: PDGF
induction of rat mox1 message, quantitation by densitometry (r-p65mox mRNA; 6 and 12 hour time points): ~4 fold
increase of mRNA for r-p65mox (r-p65mox mRNA; PDGF 20 ng/ml): ≥ 2 fold
Northern hybridization of mox1 mRNA from rat aortic smooth muscle cells (r-p65mox mRNA; within 12 hours after treatment): increased roughly two-fold

Molecule: angiotensin II (DRVYIHPF; Angiotensin-2; UniProt P01019 25-32, looked up) [growth stimulus for vascular smooth muscle cells]
induction of rat mox1 message, quantitation by densitometry (r-p65mox mRNA; 12 hour time point): approximately 2 fold

Molecule: c1ccc2c(c1)[I+]c1ccccc1-2 [DPI, diphenyleneiodonium]
RLU/5 μg protein, plus DPI ([2]; V12-Ras-4 lysate): 36 RLU/5 μg protein
RLU/5 μg protein, plus DPI ([2]; V12-Ras-7 lysate): 39 RLU/5 μg protein
RLU/5 μg protein, plus DPI ([2]; V12-Ras-8 lysate): 35 RLU/5 μg protein
RLU/5 μg protein, plus DPI ([2]; Vector Control lysate): 48 RLU/5 μg protein
inhibition of luminescence / activity [2]: completely inhibited
effect of added agent on the luminescent signal (human mox1): inhibited

Further lines, with some results ahead:

enhancement of NADPH-oxidase activity (mox1 NADPH-oxidase): about 2 fold
Molecule: [Cl-].[Cl-].[Mg+2] [MgCl2]

RLU/5 μg protein, plus SOD ([2]; V12-Ras-4 lysate): 2128 RLU/5 μg protein
RLU/5 μg protein, plus SOD ([2]; V12-Ras-7 lysate): 578 RLU/5 μg protein
RLU/5 μg protein, plus SOD ([2]; V12-Ras-8 lysate): 2000 RLU/5 μg protein
RLU/5 μg protein, plus SOD ([2]; Vector Control lysate): 154 RLU/5 μg protein
inhibition of luminescence / activity [2]: partially inhibited
effect of added agent on the luminescent signal (human mox1): inhibited
Molecule: superoxide dismutase
NBT Reduction, +SOD ([1]; YA26 (mox1) cells): 3.4 ± 0.1 nmols/10^6 cells
NBT Reduction, +SOD ([1]; YA28 (mox1) cells): 3.4 ± 0.3 nmols/10^6 cells
NBT Reduction, +SOD ([1]; vector control cells): 2.1 ± 0.5 nmols/10^6 cells

effect of added agent on the luminescent signal (human mox1): unaffected
B1: p47phox: recombinant human p47phox, essential cytosolic factor for the phagocyte respiratory-burst oxidase (protein, UniProt P14598 1-390, looked up)
Neutrophil cytosol factor 1: MGDTFIRHIALLGFEKRFVPSQHYVYMFLVKWQDLSEKVVYRRFTEIYEFHKTLKEMFPIEAGAINPENRIIPHLPAPKWFDGQRAAENRQGTLTEYCSTLMSLPTKISRCPHLLDFFKVRPDDLKLPTDNQTKKPETYLMPKDGKSTATDITGPIILQTYRAIANYEKTSGSEMALSTGDVVEVVEKSESGWWFCQMKAKRGWIPASFLEPLDSPDETEDPEPNYAGEPYVAIKAYTAVEGDEVSLLEGEAVEVIHKLLDGWWVIRKDDVTGYFPSMYLQKSGQDVSQAQRQIKRGAPPRRSSIRNAHSIHQRSRKRLSQDAYRRNSVRFLQQRRRQARPGPQSPGSPLEEERQTQRSKPQPAVPPRPSADLILNRCSESTKRKLASAV

effect of added agent on the luminescent signal (human mox1): unaffected
B2: p67phox: recombinant human p67phox, essential cytosolic factor for the phagocyte respiratory-burst oxidase (protein, UniProt P19878 1-526, looked up)
Neutrophil cytosol factor 2: MSLVEAISLWNEGVLAADKKDWKGALDAFSAVQDPHSRICFNIGCMYTILKNMTEAEKAFTRSINRDKHLAVAYFQRGMLYYQTEKYDLAIKDLKEALIQLRGNQLIDYKILGLQFKLFACEVLYNIAFMYAKKEEWKKAEEQLALATSMKSEPRHSKIDKAMECVWKQKLYEPVVIPVGKLFRPNERQVAQLAKKDYLGKATVVASVVDQDSFSGFAPLQPQAAEPPPRPKTPEIFRALEGEAHRVLFGFVPETKEELQVMPGNIVFVLKKGNDNWATVMFNGQKGLVPCNYLEPVELRIHPQQQPQEESSPQSDIPAPPSSKAPGRPQLSPGQKQKEEPKEVKLSVPMPYTLKVHYKYTVVMKTQPGLPYSQVRDMVSKKLELRLEHTKLSYRPRDSNELVPLSEDSMKDAWGQVKNYCLTLWCENTVGDQGFPDEPKESEKADANNQTTEPQLKKGSQVEALFSYEATQPEDLEFQEGDIILVLSKVNEEWLEGECKGKVGIFPKVFVEDCATTDLESTRREV
